According to patent US11186581B2, “2-(1,3-dimethyl-2,6-dioxo-1,2,3,6-tetrahydro-7H-purin-7-yl)-N-(6-(2-hydroxyphenyl)pyridazin-3-yl)acetamide as a Wnt pathway modulator” (Agency for Science, Technology and Research, priority 2017, dated 2021):

Test system: HEK293-STF3A cells
Assay: STF3A assay (Wnt reporter luciferase)
Format: cell-based
Settings: Homo sapiens, 24 h, 1 day of treatment, read-out: IC50 activities on STF3A cells
Procedure: HEK293-STF cell line was modified from Human embryonic kidney cell line HEK293 transfected with the STF reporter. HEK293-STF3 A cell line was further modified from HEK293-STF cell line to express Wnt3A. This cell line was used to identify compounds that regulate either early or late signalling components of the Wnt pathway. L-Wnt3 A (ATCC, #CRL-2647) cell line was used for providing Wnt3 A conditioned media. The three cell lines were grown in DMEM (Dulbecco's Modified Eagle Medium) with 10% FBS (fetal bovine serum) incubated in 37° C. with 5% CO2.
2×10^4 HEK293-STF3A cells in 75 μl culture media were seeded in each well of white 96 well plates (Greiner #655098) and incubated overnight at 37° C. 25 μl serially diluted compound was added to the cells to give final concentration of 50 μM to 1.5 nM. After 1 day of treatment, 100 μl of Steady-Glo® Luciferase Assay reagent (#E2520, Promega) was added to each well and incubated for 10 minutes at room temperature. Luminescence was measured using Tecan Safire2® plate reader.

COc1ccccc1-c1ccc(NC(=O)Cn2cnc3c2c(=O)n(C)c(=O)n3C)nn1 [Compound 2, reference compound]
IC50: > 10 µM
